Assay [1] concerns the target T1, human calcitonin receptor (hCTR) (Homo sapiens, UniProt P30988).
T1 construct: expressed in transfected cells
T1 sequence (P30988 25-474): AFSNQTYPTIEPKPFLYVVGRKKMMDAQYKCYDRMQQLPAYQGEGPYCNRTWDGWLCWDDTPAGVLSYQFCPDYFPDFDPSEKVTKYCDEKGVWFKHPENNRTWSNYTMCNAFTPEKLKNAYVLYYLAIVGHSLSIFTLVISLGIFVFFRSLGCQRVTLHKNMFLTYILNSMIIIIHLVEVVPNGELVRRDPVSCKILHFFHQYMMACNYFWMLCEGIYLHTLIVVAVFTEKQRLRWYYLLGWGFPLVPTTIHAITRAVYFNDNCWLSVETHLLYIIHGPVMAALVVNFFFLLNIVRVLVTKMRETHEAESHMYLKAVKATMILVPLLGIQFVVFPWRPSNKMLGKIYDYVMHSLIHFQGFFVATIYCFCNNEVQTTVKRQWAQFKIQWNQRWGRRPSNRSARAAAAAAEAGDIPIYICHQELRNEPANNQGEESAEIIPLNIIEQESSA
Put plainly: cAMP production in 1321N1 cells with stable recombinant expression of human calcitonin receptor (hCTR). Type of assay: cell-based. The settings on record: cAMP, 1321N1 cells, assay buffer with 0.1% BSA; read-out: EC50 (pM) hCTR. The method in brief: (§1)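 Thawed cells in HBSS/0.1% BSA/25 mM HEPES pH 7.4 with 0.5 mM IBMX were incubated with peptides 30 min at room temperature; cAMP read by HTRF. EC50 from 4-parameter fit of % activation relative to maximal amylin or calcitonin effect.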

Assay [2] has as its target T2, human amylin receptor (calcitonin receptor co-expressed with receptor activity modifying protein, RAMP3) (hAMYR3) (Homo sapiens, UniProt O60896+P30988).
T2 construct: expressed in transfected cells
T2 sequence (P30988 25-474): T1 sequence (P30988 25-474)
T2 sequence (O60896 24-148 partner): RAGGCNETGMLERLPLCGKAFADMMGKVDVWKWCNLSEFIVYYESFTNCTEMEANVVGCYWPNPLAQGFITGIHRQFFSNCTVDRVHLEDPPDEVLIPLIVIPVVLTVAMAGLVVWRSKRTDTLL
Kind of assay: cAMP production in 1321N1 cells with stable recombinant expression of human amylin receptor (hAMYR3). Type of assay: cell-based. Conditions: for Ratio (selectivity hAMYR vs hCTR, ratio of EC50 values at the two receptors): EC50 hCTR / EC50 hAMYR3; for EC50: cAMP, 1321N1 cells, assay buffer with 0.1% BSA, read-out: EC50 (pM) hAMYR3. Put shortly: as §1

Numbered stars: 1 amine (or outer) side, 2 acyl side, 3 side chain; on linkers, the order of the positions; unused ones are H or OH. Bridge positions count the residues as written; N and C are the ends. Square brackets hold non-standard residues; d marks the D form. Side chains are listed from the residue outwards. Peptide text beside a SMILES is read from it. * marks the point of attachment. C18 diacid = O=C(O)CCCCCCCCCCCCCCCCC(=O)*; γGlu = O=C(O)[C@H](CCC(=O)[*:2])N[*:1]; Aib = CC(C)(N)C(=O)O

As to `CC[C@H](C)[C@H](NC(=O)[C@@H]1CCCN1C(=O)CNC(=O)[C@H](Cc1ccccc1)NC(=O)[C@H](CC(N)=O)NC(=O)C(C)(C)NC(=O)[C@H](CO)NC(=O)[C@H](CO)NC(=O)[C@H](Cc1c[nH]cn1)NC(=O)[C@@H](NC(=O)[C@H](CC(C)C)NC(=O)[C@H](Cc1ccccc1)NC(=O)[C@H](CC(N)=O)NC(=O)[C@H](C)NC(=O)[C@H](CC(C)C)NC(=O)[C@H](CCCNC(=N)N)NC(=O)[C@H](CCC(N)=O)NC(=O)[C@@H](NC(=O)[C@H](C)NC(=O)[C@@H]1CSSC[C@H](NC(=O)[C@H](CCCCN)NC(=O)[C@@H](N)CCCCNC(=O)CC[C@H](NC(=O)CCCCCCCCCCCCCCCCC(=O)O)C(=O)O)C(=O)N[C@@H](CC(N)=O)C(=O)N[C@@H]([C@@H](C)O)C(=O)N[C@@H](C)C(=O)N[C@@H]([C@@H](C)O)C(=O)N1)[C@@H](C)O)C(C)C)C(=O)N[C@@H](CC(C)C)C(=O)N1CCC[C@H]1C(=O)N1CCC[C@H]1C(=O)N[C@H](C(=O)N[C@@H](CC(N)=O)C(=O)N[C@H](C(=O)NCC(=O)N[C@@H](CO)C(=O)N[C@@H](CC(N)=O)C(=O)N[C@H](C(=O)NC(C)(C)C(N)=O)[C@@H](C)O)C(C)C)[C@@H](C)O` [Peptide 85, K(γE-C18diacid)K[CNTATC]ATQRLANFLVHSS(Aib)NFGPILPPTNVGSNT(Aib)-amide] (H-K([γGlu-C18 diacid])KCNTATCATQRLANFLVHSS[Aib]NFGPILPPTNVGSNT[Aib]-NH2; disulfide 3-8; N-terminus assumed), the concentration giving a half-maximal response (EC50) in assay [1] was 3100 pM; in assay [2], 806 pM. For the same molecule, the “Ratio (selectivity hAMYR vs hCTR, ratio of EC50 values at the two receptors)” value in assay [2] worked out at 4.

Consider `CC[C@H](C)[C@H](NC(=O)[C@@H]1CCCN1C(=O)CNC(=O)[C@H](Cc1ccccc1)NC(=O)[C@H](CC(N)=O)NC(=O)C(C)(C)NC(=O)[C@H](CO)NC(=O)[C@H](CO)NC(=O)[C@H](Cc1c[nH]cn1)NC(=O)C(C)(C)NC(=O)[C@H](CC(C)C)NC(=O)[C@H](Cc1ccccc1)NC(=O)[C@H](Cc1c[nH]cn1)NC(=O)[C@H](C)NC(=O)[C@H](CC(C)C)NC(=O)[C@H](CCCNC(=N)N)NC(=O)[C@H](CCC(N)=O)NC(=O)[C@@H](NC(=O)[C@H](C)NC(=O)[C@@H]1CSSC[C@H](NC(=O)[C@H](CCCCN)NC(=O)[C@@H](N)CCCCNC(=O)CC[C@H](NC(=O)CCCCCCCCCCCCCCCCC(=O)O)C(=O)O)C(=O)N[C@@H](CC(N)=O)C(=O)N[C@@H]([C@@H](C)O)C(=O)N[C@@H](C)C(=O)N[C@@H]([C@@H](C)O)C(=O)N1)[C@@H](C)O)C(=O)N[C@@H](CC(C)C)C(=O)N1CCC[C@H]1C(=O)N1CCC[C@H]1C(=O)N[C@H](C(=O)N[C@@H](CCC(=O)O)C(=O)N[C@H](C(=O)NCC(=O)N[C@@H](CO)C(=O)N[C@@H](CC(N)=O)C(=O)N[C@H](C(=O)N[C@@H](Cc1ccc(O)cc1)C(N)=O)[C@@H](C)O)C(C)C)[C@@H](C)O` [Peptide 86, K(γE-C18diacid)K[CNTATC]ATQRLAHFL(Aib)HSS(Aib)NFGPILPPTEVGSNTY-amide] (H-K([γGlu-C18 diacid])KCNTATCATQRLAHFL[Aib]HSS[Aib]NFGPILPPTEVGSNTY-NH2; disulfide 3-8), for which the EC50 in assay [1] was found to be 311 pM. Besides, in assay [2], the “Ratio (selectivity hAMYR vs hCTR, ratio of EC50 values at the two receptors)” value is given as 3 and the EC50 turned out to be 119 pM.

Source of the values: patent US20240067693A1, “POLYPEPTIDES AND USES THEREOF” (MEDIMMUNE LIMITED, priority 2020, published 2024).
